Test results as given in US20240287046A1, “COMPOUNDS AND RADIOLIGANDS FOR TARGETING NEUROTENSIN RECEPTOR AND USES THEREOF” (Full-Life Technologies HK Limited, priority 2022, published 2024).
Blank lines part the entries; values can stand above or below the molecule they belong to.

What was measured:
[1] = tested on: ASPC-1 tumor-bearing mice; test: Biodistribution of radionuclide labeled complexes in ASPC-1 tumor-bearing mice; assay type: in vivo, BALB/c nude mice
Procedure: (§1) The BALB/c nude mice (Charles River, Beijing) were utilized to establish the xenografted model for biodistribution study. All animal care and experimental procedure were performed by following the animal protocols approved by the ethics committee of China Institute of Radiation Protection.
(§2) Briefly, each mouse was inoculated with approximately 4×10^6 ASPC-1 cells (human pancreatic cancer cell line) or HT-29 cells (human colorectal adenocarcinoma cell line) expressing human NTSR-1 by subcutaneous injection at rear flank. After inoculation, the xenografted tumors were allowed to grow for ˜2-4 weeks till the tumor weight reached to about 0.05 to 0.50 g (0.20 g in average).
(§3) Biodistribution studies were performed by administrating the radionuclide labeled test compound at a dose of ˜30-50 μCi (100 μL in 0.9% NaCl, ˜1.11-1.85 MBq, with specific activity 30-250 μCi/nmol) to each animal through tail vein injection.
(§4) At different time points after the administration, the mice treated with each compound were euthanized. The tissues and organs of the animals in each group were collected, excised, weighed, and analyzed in a PerkinElmer 2480 WIZARD2γ counter, and the percent injected dose (% ID) and % ID/g of each organ or tissue were calculated.

HT-29 tumor-bearing mice = test: Biodistribution of radionuclide labeled complexes in HT-29 tumor-bearing mice; assay type: in vivo, BALB/c nude mice
Procedure: as §1, §2, §3, §4

human NTSR-1 = human NTSR-1 (Homo sapiens (Human), UniProt P30989); test: radioligand competitive binding assay using ^177Lu labeled C-1 as reference radioligand; conditions: Mean IC50 of C-1/Mean IC50 of the test compound
Procedure: The binding affinities of test compounds were determined by a radioligand competitive binding assay using ^177Lu labeled C-1 as the reference radioligand.
Briefly, 100 μL HT-29 cells expressing human NTSR-1 at a density of 1˜2×10^6 cells/mL were mixed with binding buffer (RPMI-1640 medium supplemented with 0.25% bovine serum albumin) in each well of the 96-well filter plate (Millipore). Then the cells in each well were incubated with ^177Lu—C-1 (0.55 μCi/well) and the test compound under 37° C. for 1 hr (n=3). After incubation, unbound ^177Lu—C-1 and the test compound in each well was removed by filtration using a Multiscreen vacuum manifold (Millipore) and the cells were further rinsed with the binding buffer for 5 times. The cells from each well were then collected and radioactivity of the cells in each well was individually measured by y counter (2480 WIZARD2, PerkinElmer). The best-fit IC50 value of test compounds (inhibitory concentration when 50% of the bound ^177Lu—C-1 on cells were displaced) were calculated by fitting the data with nonlinear regression using GraphPad Prism 8.0.1.

Sequence of human NTSR-1 (P30989 whole entry): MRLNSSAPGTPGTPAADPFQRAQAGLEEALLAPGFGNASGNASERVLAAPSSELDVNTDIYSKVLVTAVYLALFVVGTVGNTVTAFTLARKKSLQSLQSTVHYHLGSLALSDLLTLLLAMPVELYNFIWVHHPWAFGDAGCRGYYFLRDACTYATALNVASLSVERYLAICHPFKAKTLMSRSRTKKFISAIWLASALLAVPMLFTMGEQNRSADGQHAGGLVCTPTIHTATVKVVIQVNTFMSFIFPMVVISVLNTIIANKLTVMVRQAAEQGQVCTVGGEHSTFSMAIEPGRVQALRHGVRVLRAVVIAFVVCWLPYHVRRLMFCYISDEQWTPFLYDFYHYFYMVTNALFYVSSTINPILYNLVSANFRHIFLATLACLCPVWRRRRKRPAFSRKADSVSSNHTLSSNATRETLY

- tumor uptake relative to blood, liver and lung compared to ^177Lu—C5 ([1]; 1 or 4 hours): significantly higher tumor uptake
- uptake ratio Tumor/Blood ([1]; 1 h): 33.3
- uptake ratio Tumor/Kidney ([1]; 1 h): 3.42
- uptake ratio Tumor/Liver ([1]; 1 h): 25.0
- uptake ratio Tumor/Lung ([1]; 1 h): 23.7
- uptake ratio Tumor/Blood ([1]; 4 h): 364
- uptake ratio Tumor/Kidney ([1]; 4 h): 5.70
- uptake ratio Tumor/Liver ([1]; 4 h): 25.9
- uptake ratio Tumor/Lung ([1]; 4 h): 79.3
- % ID/g (1 h) Blood ([1]; Blood, 1 h): 0.38 ± 0.06 % ID/g
- % ID/g (4 h) Blood ([1]; Blood, 4 h): 0.04 ± 0.01 % ID/g
- % ID/g (1 h) Femur ([1]; Femur, 1 h): 0.12 ± 0.01 % ID/g
- % ID/g (4 h) Femur ([1]; Femur, 4 h): 0.12 ± 0.09 % ID/g
- % ID/g (1 h) Heart ([1]; Heart, 1 h): 0.22 ± 0.12 % ID/g
- % ID/g (4 h) Heart ([1]; Heart, 4 h): 0.12 ± 0.03 % ID/g
- % ID/g (1 h) Intestine ([1]; Intestine, 1 h): 0.77 ± 0.31 % ID/g
- % ID/g (4 h) Intestine ([1]; Intestine, 4 h): 0.22 ± 0.06 % ID/g
- % ID/g (1 h) Kidney ([1]; Kidney, 1 h): 3.71 ± 0.24 % ID/g
- % ID/g (4 h) Kidney ([1]; Kidney, 4 h): 2.39 ± 0.37 % ID/g
- % ID/g (1 h) Liver ([1]; Liver, 1 h): 0.51 ± 0.22 % ID/g
- % ID/g (4 h) Liver ([1]; Liver, 4 h): 0.53 ± 0.16 % ID/g
- % ID/g (1 h) Lung ([1]; Lung, 1 h): 0.54 ± 0.04 % ID/g
- % ID/g (4 h) Lung ([1]; Lung, 4 h): 0.17 ± 0.08 % ID/g
- % ID/g (1 h) Muscle ([1]; Muscle, 1 h): 0.06 ± 0 % ID/g
- % ID/g (4 h) Muscle ([1]; Muscle, 4 h): 0.08 ± 0.02 % ID/g
- % ID/g (1 h) Pancreas ([1]; Pancreas, 1 h): 0.11 ± 0.03 % ID/g
- % ID/g (4 h) Pancreas ([1]; Pancreas, 4 h): 0.06 ± 0.02 % ID/g
- % ID/g (1 h) Spleen ([1]; Spleen, 1 h): 0.09 ± 0.01 % ID/g
- % ID/g (4 h) Spleen ([1]; Spleen, 4 h): 0.13 ± 0.03 % ID/g
- % ID/g (1 h) Stomach ([1]; Stomach, 1 h): 0.27 ± 0.19 % ID/g
- % ID/g (4 h) Stomach ([1]; Stomach, 4 h): 0.21 ± 0.05 % ID/g
- % ID/g (1 h) Tumor ([1]; Tumor, 1 h): 12.71 ± 4.57 % ID/g
- % ID/g (4 h) Tumor ([1]; Tumor, 4 h): 13.64 ± 2.5 % ID/g
- % ID/g (1 h) Blood (HT-29 tumor-bearing mice; Blood, 1 h): 3.2 ± 1.07 % ID/g
- % ID/g (4 h) Blood (HT-29 tumor-bearing mice; Blood, 4 h): 0.08 ± 0.03 % ID/g
- % ID/g (1 h) Femur (HT-29 tumor-bearing mice; Femur, 1 h): 0.68 ± 0.18 % ID/g
- % ID/g (4 h) Femur (HT-29 tumor-bearing mice; Femur, 4 h): 0.2 ± 0.03 % ID/g
- % ID/g (1 h) Heart (HT-29 tumor-bearing mice; Heart, 1 h): 1.17 ± 0.24 % ID/g
- % ID/g (4 h) Heart (HT-29 tumor-bearing mice; Heart, 4 h): 0.12 ± 0.03 % ID/g
- % ID/g (1 h) Intestine (HT-29 tumor-bearing mice; Intestine, 1 h): 1.21 ± 0.06 % ID/g
- % ID/g (4 h) Intestine (HT-29 tumor-bearing mice; Intestine, 4 h): 0.27 ± 0.07 % ID/g
- % ID/g (1 h) Kidney (HT-29 tumor-bearing mice; Kidney, 1 h): 5.9 ± 4.85 % ID/g
- % ID/g (4 h) Kidney (HT-29 tumor-bearing mice; Kidney, 4 h): 5.14 ± 2.21 % ID/g
- % ID/g (1 h) Liver (HT-29 tumor-bearing mice; Liver, 1 h): 1.28 ± 0.47 % ID/g
- % ID/g (4 h) Liver (HT-29 tumor-bearing mice; Liver, 4 h): 0.83 ± 0.27 % ID/g
- % ID/g (1 h) Lung (HT-29 tumor-bearing mice; Lung, 1 h): 1.66 ± 1.17 % ID/g
- % ID/g (4 h) Lung (HT-29 tumor-bearing mice; Lung, 4 h): 0.27 ± 0.04 % ID/g
- % ID/g (1 h) Muscle (HT-29 tumor-bearing mice; Muscle, 1 h): 0.57 ± 0.15 % ID/g
- % ID/g (4 h) Muscle (HT-29 tumor-bearing mice; Muscle, 4 h): 0.09 ± 0.04 % ID/g
- % ID/g (1 h) Pancreas (HT-29 tumor-bearing mice; Pancreas, 1 h): 0.62 ± 0.25 % ID/g
- % ID/g (4 h) Pancreas (HT-29 tumor-bearing mice; Pancreas, 4 h): 0.14 ± 0.02 % ID/g
- % ID/g (1 h) Spleen (HT-29 tumor-bearing mice; Spleen, 1 h): 0.45 ± 0.19 % ID/g
- % ID/g (4 h) Spleen (HT-29 tumor-bearing mice; Spleen, 4 h): 0.26 ± 0.1 % ID/g
- % ID/g (1 h) Stomach (HT-29 tumor-bearing mice; Stomach, 1 h): 0.69 ± 0.23 % ID/g
- % ID/g (4 h) Stomach (HT-29 tumor-bearing mice; Stomach, 4 h): 0.32 ± 0.2 % ID/g
- % ID/g (1 h) Tumor (HT-29 tumor-bearing mice; Tumor, 1 h): 10.31 ± 4.72 % ID/g
- % ID/g (4 h) Tumor (HT-29 tumor-bearing mice; Tumor, 4 h): 7.53 ± 3.52 % ID/g
Compound: COc1cccc(OC)c1-c1cc(C(=O)NC2(C(=O)O)C3CC4CC(C3)CC2C4)nn1-c1ccc(N(CCCN(C)C)C(=O)COCCOCCNC(=O)CN2CCN(CC(=O)[O-])CCN(CC(=O)[O-])CCN(CC(=O)[O-])CC2)cc1C(C)C.[177Lu+3] (stereo not shown) [^177Lu-I-6]

- Relative Binding Affinity (human NTSR-1): 14.6
Compound: COc1cccc(OC)c1-c1cc(C(=O)NC2(C(=O)O)C3CC4CC(C3)CC2C4)nn1-c1ccc(N(CCCN(C)C)C(=O)COCCOCCNC(=O)CN2CCN(CC(=O)O)CCN(CC(=O)O)CC2)cc1C(C)C (stereo not shown) [Compound I-13]
